Literature values as cited in publication PMC4078388 (EJNMMI Research, 2014).

System: INS-1 tumour
Settings: Balb/c nude mice, 1 h after injection
From the text: One additional challenge when imaging β-cells is the limited amount of overall GLP-1 receptors available which requires the administration of low amounts of peptide with a high specific activity in order to avoid receptor blocking [[13]]. One potential way to further increase the specific activity and therefore reduce the amount of tracer necessary to obtain a clear image is to attach several chelators to the peptide allowing more radioactivity per molecule.

In the case of [Lys^40(^68Ga-DOTA)]exendin-3, the “uptake in INS-1 tumour” value is given as 8.9 ± 3.1 %iA/g and the “uptake in the pancreas” value is given as 6.7 ± 1.8 %iA/g.
